Publication PMC10594875, “One-Pot De Novo Synthesis of [4Fe-4S] Proteins Using a Recombinant SUF System under Aerobic Conditions” (ACS Synthetic Biology, 2023)

Target: T1, Aconitase (AcnA) (Escherichia coli, UniProt P25516)
T1 construct: cell-free (PUREfrex) synthesis, N-His6 tag removed with HRV protease, [4Fe-4S] cluster matured by SUF system
Test: LC-MS of citrate consumption, isocitrate dehydrogenase-coupled
Format: biochemical
Details: coupled with NADP-dependent isocitrate dehydrogenase

T1 sequence (P25516 2-891): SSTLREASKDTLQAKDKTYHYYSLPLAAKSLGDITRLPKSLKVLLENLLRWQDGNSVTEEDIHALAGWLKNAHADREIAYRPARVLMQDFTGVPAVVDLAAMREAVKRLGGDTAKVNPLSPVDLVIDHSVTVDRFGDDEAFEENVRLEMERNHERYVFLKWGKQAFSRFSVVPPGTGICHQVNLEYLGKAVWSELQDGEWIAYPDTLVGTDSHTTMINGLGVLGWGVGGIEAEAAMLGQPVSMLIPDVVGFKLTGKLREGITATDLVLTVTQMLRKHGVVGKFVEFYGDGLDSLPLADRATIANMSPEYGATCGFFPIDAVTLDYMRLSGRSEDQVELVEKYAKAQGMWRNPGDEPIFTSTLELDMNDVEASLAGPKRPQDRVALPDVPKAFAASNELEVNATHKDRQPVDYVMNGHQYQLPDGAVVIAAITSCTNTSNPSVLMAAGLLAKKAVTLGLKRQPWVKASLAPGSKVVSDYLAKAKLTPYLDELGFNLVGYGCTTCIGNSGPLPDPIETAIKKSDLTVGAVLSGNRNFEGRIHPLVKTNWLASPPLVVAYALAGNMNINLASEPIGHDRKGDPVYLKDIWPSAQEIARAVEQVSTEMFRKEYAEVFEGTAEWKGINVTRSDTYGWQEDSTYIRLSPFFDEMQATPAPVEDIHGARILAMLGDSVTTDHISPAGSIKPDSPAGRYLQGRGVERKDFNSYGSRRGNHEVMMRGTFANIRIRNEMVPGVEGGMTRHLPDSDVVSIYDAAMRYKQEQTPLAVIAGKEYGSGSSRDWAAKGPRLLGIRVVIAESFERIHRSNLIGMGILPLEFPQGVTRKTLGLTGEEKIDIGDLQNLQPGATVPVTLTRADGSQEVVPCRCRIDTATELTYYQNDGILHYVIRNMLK

O=C(O)CC(O)(CC(=O)O)C(=O)O [citrate]
LC-MS of citrate consumption, isocitrate dehydrogenase-coupled: concurring citrate consumption and alpha-ketoglutarate production in the assays with AcnA purified
